Experiment in all cases: biochemical
Common to all, as to design: KINOMEscan competition binding panel (Eurofins DiscoverX), single concentration, % inhibition
Holding throughout (details): read-out: 7 at 1 µM % inhibition

One assay concerns the target T1, RIPK5 (Homo sapiens, UniProt Q6XUX3).
T1 construct: gene DSTYK
The gist of the method:
(§1)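 A single 1 µM concentration of each compound is screened across upwards of 400 human kinases using the KINOMEscan format.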

A further assay deals with MERTK (Homo sapiens, UniProt Q12866). A digest of the protocol: as §1
The target in the next assay is PIM1 (Homo sapiens, UniProt P11309). The gist of the method:
as §1

The next assay concerns the target T2, FAK (Homo sapiens, UniProt Q05397).
T2 construct: gene PTK2
A digest of the protocol: as §1

In the next assay the target is NEK3 (Homo sapiens, UniProt P51956). A digest of the protocol: as §1
In a further assay the target is CAMK2G (Homo sapiens, UniProt Q13555). The gist of the method: as §1
Another assay deals with ACVR2B (Homo sapiens, UniProt Q13705). The gist of the method:
as §1

Assay [1] has as its target EGFR(L747-E749del, A750P) (Homo sapiens, UniProt P00533, A750P/DEL747-749). The gist of the method:
as §1

A further assay has as its target RIPK1 (Homo sapiens, UniProt Q13546). A digest of the protocol: as §1
The target in a further assay is PIK3CA(H1047L) (Homo sapiens, UniProt P42336, H1047L). The gist of the method:
as §1

Another assay deals with EGFR(L747-T751del,Sins) (Homo sapiens, UniProt P00533, DEL747-750/T751S). A digest of the protocol:
as §1

The target in a further assay is T3, JNK2 (Homo sapiens, UniProt P45984).
T3 construct: gene MAPK9
The gist of the method: as §1

In a further assay the target is SRPK2 (Homo sapiens, UniProt P78362). The gist of the method:
as §1

The target in a further assay is KIT(D816V) (Homo sapiens, UniProt P10721, D816V). The gist of the method:
as §1

Another assay addresses T4, BIKE (Homo sapiens, UniProt Q9NSY1).
T4 construct: gene BMP2K
The gist of the method: as §1

In the next assay the target is TNNI3K (Homo sapiens, UniProt Q59H18). A digest of the protocol:
as §1

Another assay has as its target PRKCD (Homo sapiens, UniProt Q05655). The gist of the method: as §1
For another assay, the target named is ALK(C1156Y) (Homo sapiens, UniProt Q9UM73, C1156Y). The gist of the method: as §1
Another assay addresses T5, PKAC-beta (Homo sapiens, UniProt P22694).
T5 construct: gene PRKACB
A digest of the protocol: as §1

For another assay, the target named is PAK4 (Homo sapiens, UniProt O96013). A digest of the protocol: as §1
For the next assay, the target named is T6, HPK1 (Homo sapiens, UniProt Q92918).
T6 construct: gene MAP4K1
The gist of the method: as §1

For the next assay, the target named is T7, ICK (Homo sapiens, UniProt Q9UPZ9).
T7 construct: gene CILK1
The gist of the method: as §1

The target of a further assay is KIT(V559D,T670I) (Homo sapiens, UniProt P10721, T670I/V559D). A digest of the protocol:
as §1

For the next assay, the target named is IRAK1 (Homo sapiens, UniProt P51617). The gist of the method: as §1

Structures are written as SMILES.

T4 sequence (Q9NSY1 whole entry): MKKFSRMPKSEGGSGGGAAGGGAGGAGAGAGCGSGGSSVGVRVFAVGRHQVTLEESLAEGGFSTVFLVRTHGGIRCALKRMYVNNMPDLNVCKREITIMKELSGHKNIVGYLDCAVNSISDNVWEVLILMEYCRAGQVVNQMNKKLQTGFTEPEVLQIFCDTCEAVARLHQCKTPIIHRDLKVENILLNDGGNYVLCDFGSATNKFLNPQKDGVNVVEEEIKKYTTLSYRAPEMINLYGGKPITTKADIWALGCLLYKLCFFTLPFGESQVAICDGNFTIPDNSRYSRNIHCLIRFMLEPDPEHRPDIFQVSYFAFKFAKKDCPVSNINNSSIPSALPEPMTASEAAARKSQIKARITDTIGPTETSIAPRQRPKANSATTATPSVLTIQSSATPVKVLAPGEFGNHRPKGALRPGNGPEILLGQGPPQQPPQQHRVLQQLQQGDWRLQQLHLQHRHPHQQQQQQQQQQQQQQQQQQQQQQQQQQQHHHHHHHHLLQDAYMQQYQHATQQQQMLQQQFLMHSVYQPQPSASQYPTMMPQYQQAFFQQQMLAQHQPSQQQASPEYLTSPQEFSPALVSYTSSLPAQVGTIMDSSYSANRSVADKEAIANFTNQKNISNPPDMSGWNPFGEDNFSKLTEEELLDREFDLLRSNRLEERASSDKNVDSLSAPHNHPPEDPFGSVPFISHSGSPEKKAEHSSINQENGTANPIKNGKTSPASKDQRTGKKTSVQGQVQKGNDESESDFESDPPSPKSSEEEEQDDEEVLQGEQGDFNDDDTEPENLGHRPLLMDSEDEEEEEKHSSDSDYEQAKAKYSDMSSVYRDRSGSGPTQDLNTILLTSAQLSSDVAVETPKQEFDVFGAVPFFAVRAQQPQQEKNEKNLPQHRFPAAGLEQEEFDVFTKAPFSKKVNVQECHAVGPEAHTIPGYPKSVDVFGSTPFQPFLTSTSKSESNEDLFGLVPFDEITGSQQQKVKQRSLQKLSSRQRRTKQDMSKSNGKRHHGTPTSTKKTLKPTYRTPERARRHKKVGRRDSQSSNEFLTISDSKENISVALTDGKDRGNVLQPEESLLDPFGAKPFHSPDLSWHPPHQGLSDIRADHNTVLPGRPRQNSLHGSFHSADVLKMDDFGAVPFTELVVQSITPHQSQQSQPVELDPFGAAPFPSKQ
T6 sequence (Q92918 whole entry): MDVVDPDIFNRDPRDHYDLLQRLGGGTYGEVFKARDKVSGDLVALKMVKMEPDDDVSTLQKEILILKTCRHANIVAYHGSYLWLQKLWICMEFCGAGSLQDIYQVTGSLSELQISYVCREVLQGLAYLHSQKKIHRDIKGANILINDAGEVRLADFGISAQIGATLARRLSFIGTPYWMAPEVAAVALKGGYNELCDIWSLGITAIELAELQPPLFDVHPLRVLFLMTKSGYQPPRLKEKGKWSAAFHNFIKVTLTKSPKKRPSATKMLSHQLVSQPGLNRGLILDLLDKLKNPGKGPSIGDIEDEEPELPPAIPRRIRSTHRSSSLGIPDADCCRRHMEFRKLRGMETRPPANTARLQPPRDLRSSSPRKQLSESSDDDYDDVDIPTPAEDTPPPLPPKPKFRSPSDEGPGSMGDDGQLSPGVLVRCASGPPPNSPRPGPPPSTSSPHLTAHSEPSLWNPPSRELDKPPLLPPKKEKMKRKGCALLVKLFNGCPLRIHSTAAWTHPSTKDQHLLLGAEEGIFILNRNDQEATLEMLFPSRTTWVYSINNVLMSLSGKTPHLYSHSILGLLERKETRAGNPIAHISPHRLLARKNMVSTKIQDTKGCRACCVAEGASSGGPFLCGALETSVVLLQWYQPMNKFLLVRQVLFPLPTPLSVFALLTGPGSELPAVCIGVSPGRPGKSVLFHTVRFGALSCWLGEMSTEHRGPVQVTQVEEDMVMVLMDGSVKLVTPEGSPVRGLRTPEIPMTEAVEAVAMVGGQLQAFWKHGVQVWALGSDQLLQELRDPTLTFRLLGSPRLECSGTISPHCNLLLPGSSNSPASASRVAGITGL
ACVR2B, sequence (Q13705 whole entry): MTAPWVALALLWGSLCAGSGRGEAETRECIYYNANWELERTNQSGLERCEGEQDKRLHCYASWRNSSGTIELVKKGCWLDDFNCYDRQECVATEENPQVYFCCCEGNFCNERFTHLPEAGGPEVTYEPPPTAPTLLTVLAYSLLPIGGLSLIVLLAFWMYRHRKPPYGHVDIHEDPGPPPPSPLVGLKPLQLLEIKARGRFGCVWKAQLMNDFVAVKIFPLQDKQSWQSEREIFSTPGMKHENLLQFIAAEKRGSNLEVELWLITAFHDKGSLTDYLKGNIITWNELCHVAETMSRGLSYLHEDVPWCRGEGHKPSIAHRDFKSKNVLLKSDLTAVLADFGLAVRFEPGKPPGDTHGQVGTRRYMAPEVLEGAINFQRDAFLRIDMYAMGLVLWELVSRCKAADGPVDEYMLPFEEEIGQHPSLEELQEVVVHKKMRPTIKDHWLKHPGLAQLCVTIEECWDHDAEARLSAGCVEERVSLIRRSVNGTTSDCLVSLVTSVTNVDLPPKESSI
SRPK2, sequence (P78362 whole entry): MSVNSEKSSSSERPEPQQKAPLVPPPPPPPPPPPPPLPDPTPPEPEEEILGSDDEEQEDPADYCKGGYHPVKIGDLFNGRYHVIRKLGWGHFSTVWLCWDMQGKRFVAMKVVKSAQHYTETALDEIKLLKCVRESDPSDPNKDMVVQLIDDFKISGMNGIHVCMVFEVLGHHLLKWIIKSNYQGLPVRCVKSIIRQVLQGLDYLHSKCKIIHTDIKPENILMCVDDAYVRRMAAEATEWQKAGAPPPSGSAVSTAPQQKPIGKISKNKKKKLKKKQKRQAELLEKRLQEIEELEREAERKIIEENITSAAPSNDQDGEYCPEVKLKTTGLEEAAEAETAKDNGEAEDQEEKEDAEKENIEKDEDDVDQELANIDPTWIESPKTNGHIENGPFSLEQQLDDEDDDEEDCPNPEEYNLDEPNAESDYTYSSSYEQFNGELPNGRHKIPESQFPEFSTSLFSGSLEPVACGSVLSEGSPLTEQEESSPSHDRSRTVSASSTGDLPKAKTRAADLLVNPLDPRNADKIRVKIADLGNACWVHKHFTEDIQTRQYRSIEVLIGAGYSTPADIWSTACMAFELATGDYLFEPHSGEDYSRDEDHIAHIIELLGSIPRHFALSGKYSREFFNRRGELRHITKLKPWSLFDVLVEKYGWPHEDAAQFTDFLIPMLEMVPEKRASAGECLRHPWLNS
MERTK, sequence (Q12866 whole entry): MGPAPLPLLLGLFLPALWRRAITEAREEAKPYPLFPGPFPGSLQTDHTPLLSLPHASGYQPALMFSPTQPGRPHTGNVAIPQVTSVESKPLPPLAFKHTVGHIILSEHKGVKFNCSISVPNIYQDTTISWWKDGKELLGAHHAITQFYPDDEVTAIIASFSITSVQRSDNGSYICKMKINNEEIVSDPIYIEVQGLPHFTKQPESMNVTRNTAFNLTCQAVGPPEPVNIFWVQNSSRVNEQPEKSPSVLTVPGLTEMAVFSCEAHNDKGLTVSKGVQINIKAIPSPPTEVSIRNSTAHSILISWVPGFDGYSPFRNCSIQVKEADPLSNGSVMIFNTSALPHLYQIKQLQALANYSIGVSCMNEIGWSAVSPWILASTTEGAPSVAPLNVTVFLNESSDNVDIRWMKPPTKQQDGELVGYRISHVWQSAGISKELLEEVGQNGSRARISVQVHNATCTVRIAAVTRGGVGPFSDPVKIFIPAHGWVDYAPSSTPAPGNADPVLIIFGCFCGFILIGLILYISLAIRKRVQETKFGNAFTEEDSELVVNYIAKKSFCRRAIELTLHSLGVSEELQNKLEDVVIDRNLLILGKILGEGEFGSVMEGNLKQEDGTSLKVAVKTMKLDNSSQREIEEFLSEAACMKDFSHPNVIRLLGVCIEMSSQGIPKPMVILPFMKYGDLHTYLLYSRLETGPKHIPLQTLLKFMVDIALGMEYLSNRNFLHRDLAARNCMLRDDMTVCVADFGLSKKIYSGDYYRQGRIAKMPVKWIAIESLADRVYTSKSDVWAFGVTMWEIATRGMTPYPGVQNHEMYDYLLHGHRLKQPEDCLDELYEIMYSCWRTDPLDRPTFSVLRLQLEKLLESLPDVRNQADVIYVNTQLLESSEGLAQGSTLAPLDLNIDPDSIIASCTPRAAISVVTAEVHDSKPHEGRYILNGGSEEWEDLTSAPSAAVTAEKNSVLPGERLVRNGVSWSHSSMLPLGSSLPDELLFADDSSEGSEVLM
TNNI3K, sequence (Q59H18 whole entry): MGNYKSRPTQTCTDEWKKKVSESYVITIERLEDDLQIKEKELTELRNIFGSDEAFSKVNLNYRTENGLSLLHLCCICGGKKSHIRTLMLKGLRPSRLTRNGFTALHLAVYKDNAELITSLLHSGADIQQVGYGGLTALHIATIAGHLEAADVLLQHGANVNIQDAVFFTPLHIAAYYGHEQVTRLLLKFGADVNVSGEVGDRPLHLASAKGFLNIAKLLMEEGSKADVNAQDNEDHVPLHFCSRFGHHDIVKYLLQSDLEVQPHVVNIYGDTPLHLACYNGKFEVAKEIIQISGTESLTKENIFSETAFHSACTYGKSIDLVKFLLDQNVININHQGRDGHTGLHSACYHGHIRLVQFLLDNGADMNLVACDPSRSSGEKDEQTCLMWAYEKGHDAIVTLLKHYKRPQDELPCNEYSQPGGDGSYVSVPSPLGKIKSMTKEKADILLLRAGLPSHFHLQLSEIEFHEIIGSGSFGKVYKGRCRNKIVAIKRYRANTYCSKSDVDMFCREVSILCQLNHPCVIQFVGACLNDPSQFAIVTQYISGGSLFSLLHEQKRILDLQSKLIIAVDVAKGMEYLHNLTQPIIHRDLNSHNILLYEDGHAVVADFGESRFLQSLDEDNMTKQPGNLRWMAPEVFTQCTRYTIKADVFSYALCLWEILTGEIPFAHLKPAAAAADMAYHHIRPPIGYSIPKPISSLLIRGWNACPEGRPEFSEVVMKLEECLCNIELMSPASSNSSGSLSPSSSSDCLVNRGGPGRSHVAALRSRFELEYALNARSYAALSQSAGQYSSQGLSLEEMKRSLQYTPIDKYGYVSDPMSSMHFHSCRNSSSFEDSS

For orientation: inhibition means the change of the read-out against control, counted positive when it falls. Turning to `CNS(=O)(=O)c1ccc(N(C)C)c(Nc2ncnc3cc(OC)c(OC)cc23)c1` [compound 7, 3-((6,7-dimethoxyquinazolin-4-yl)amino)-4-(dimethylamino)-N-methylbenzenesulfonamide], the inhibition at 1 µM turned out to be 49% on RIPK5; 0% on MERTK; 0% on PIM1; 8% at FAK; 0% on NEK3; 0% at CAMK2G. In addition, the inhibition at 1 µM turned out to be 6% on ACVR2B; 0% in assay [1]; 0% at RIPK1; 0% on PIK3CA(H1047L); 0% at EGFR(L747-T751del,Sins); 0% at JNK2. Also, the inhibition at 1 µM at SRPK2 is 15%; on KIT(D816V), 91.7%; on BIKE, 0%; at TNNI3K, 62%; on PRKCD, 24%; at ALK(C1156Y), 0%. The inhibition at 1 µM at PKAC-beta was 0%; at PAK4, 0%; on HPK1, 0%; on ICK it was 7%; on KIT(V559D,T670I), 8%; at IRAK1 it was 68%.

The record behind these values is paper PMC7180948, “New Insights into 4-Anilinoquinazolines as Inhibitors of Cardiac Troponin I–Interacting Kinase (TNNi3K)” (Molecules, 2020).
